Values after ≈ are worked out from the molar mass of the structure shown. Like-named read-outs stand apart in the source and are kept apart here.
Legend:
Type in all cases: physicochemical
Particle size study = experiment: Particle size study
Description: Particle size distribution of Forms CS1 and Form CS2 of the present disclosure and Form A of the prior art are tested. The average particle size of Form A is 12.58 μm, which is too small to be isolated effectively in the crystallization process. The Average particle sizes of Forms CS1 and Form CS2 are 175.0 μm and 151.9 μm, which are much larger than that of Form A. Compared with Form A, Form CS1 and Form CS2 with large particle size have less electrostatic attraction and can be separated more easily during the crystallization process. Moreover, the mixing non uniformity in the preparation process can be avoided, the quality of the drug is more controllable. At the same time, the crystal growth of the large particle size crystals is more perfect, and the adsorption of the solvent or the impurity on the crystals can be avoided, which is more helpful for purification.

[1] = Stability study at 25° C./60% RH (XRPD, purity); conditions: one month and three months
Description: Approximately 10 mg of Form CS2 were stored in a temperature and humidity controlled chamber at 25° C./60% RH, and samples were taken for XRPD at the beginning and after stored for one month and three months. The results are as depicted in FIG. 13.

[2] = Dissolution study (intrinsic dissolution rate, rotating disk); conditions: for Cumulative dissolution: phosphate buffer pH 6.8, 37° C.; for intrinsic dissolution rate: linear fit of cumulative dissolution with time, phosphate buffer pH 6.8
Description: The dissolution data were collected on an Agilent 708-DS.
100 mg of Form CS2 and Form A were added into the die of intrinsic dissolution rate (IDR) tooling, and then compressed at 12 KN for 1 min.
Dissolution medium: phosphate buffer (pH 6.8)
Dissolution method: rotating disk
Revolving speed: 1000 rpm
Medium temperature: 37° C.

[3] = Solubility study in FaSSIF and SGF (saturated solutions, HPLC); conditions: for solubility at 1 h / solubility at 4 h: thermodynamic from solid
Description: Samples of Form CS2 of the present disclosure and Form A were suspended in FaSSIF (Fasted state simulated intestinal fluids) and SGF (Simulated gastric fluids) to get saturated solutions. The concentrations of the saturated solutions were measured by high performance liquid chromatography (HPLC) at fixed time points.

[4] = Solubility study in H2O (saturated solutions, HPLC)
Description: Samples of Form CS1 of this present disclosure and Form A were suspended in H2O to get saturated solutions. After equilibrated for 1 h and 4 hours, the concentrations of the saturated solutions were measured by high performance liquid chromatography (HPLC).

Row | Structure (SMILES) | average particle size (Particle size study) [μm] | Cumulative dissolution ([2]; 10 min) [mg] | Cumulative dissolution ([2]; 15 min) [mg] | Cumulative dissolution ([2]; 20 min) [mg] | Cumulative dissolution ([2]; 25 min) [mg] | Cumulative dissolution ([2]; 30 min) [mg] | intrinsic dissolution rate [2] [mg/min] | solubility in SGF (in words) ([3]; SGF) | Solubility H2O ([4]; 1 h) [µg/mL] | Solubility H2O ([4]; 4 h) [µg/mL] | also measured
1 | COc1cc(N2CCC(N3CCN(C)CC3)CC2)ccc1Nc1ncc(Cl)c(Nc2ccccc2P(C)(C)=O)n1 [Form CS2, AP26113] | 151.9 | 6.4 | 8.0 | 9.4 | 10.7 | 11.8 | 0.268 | good solubility |  |  | purity after storage ([1]; beginning): above 99%; crystalline form after storage (XRPD) [1]: doesn't change; dissolution rate, times higher than that of Form A ([2]; relative to Form A): 5 times; solubility higher than that of Form A ([3]; FaSSIF, one hour, relative to Form A): 43%; solubility at 1 h ([3]; FaSSIF, FaSSIF, 1 h, read-out: Solubility FaSSIF): 9900 µg/mL (≈ 16.9 mM); solubility at 4 h ([3]; FaSSIF, FaSSIF, 4 h, read-out: Solubility FaSSIF): 9600 µg/mL (≈ 16.4 mM); solubility at 1 h ([3]; SGF, simulated gastric fluid, SGF, 1 h, read-out: Solubility SGF): 11200 µg/mL (≈ 19.2 mM); solubility at 4 h ([3]; SGF, simulated gastric fluid, SGF, 4 h, read-out: Solubility SGF): 12100 µg/mL (≈ 20.7 mM)
2 | COc1cc(N2CCC(N3CCN(C)CC3)CC2)ccc1Nc1ncc(Cl)c(Nc2ccccc2P(C)(C)=O)n1 [Form A, AP26113] | 12.58 | 0.6 | 0.9 | 1.1 | 1.4 | 1.6 | 0.052 | good solubility | 61 (≈ 0.104 mM) | 67 (≈ 0.115 mM) | Solubility FaSSIF ([3]; FaSSIF, 1 h): 6900 µg/mL (≈ 11.8 mM); Solubility FaSSIF ([3]; FaSSIF, 4 h): 7200 µg/mL (≈ 12.3 mM); Solubility SGF ([3]; SGF, 1 h): 10900 µg/mL (≈ 18.7 mM); Solubility SGF ([3]; SGF, 4 h): 10900 µg/mL (≈ 18.7 mM); solubility in water (in words) ([4]; water): poor
3 | COc1cc(N2CCC(N3CCN(C)CC3)CC2)ccc1Nc1ncc(Cl)c(Nc2ccccc2P(C)(C)=O)n1 [Form CS1, AP26113] | 175.0 |  |  |  |  |  |  |  | 1000 (≈ 1.71 mM) | 610 (≈ 1.04 mM) | solubility in water, times higher than that of Form A ([4]; water, relative to Form A): 16 times
